How the values were obtained:
[1] = test system: HMC-1.2 cell line (imatinib-resistant cell line, having c-kit G560V/D816V mutation); assay: Growth inhibition of mastocytosis cell line HMC-1.2; assay type: cell-based; settings: HMC-1.2, 72 hours
Description: [Worded in the source for another cell line; this cell line is reported under the same test.] Specifically, 100 μl of a Ba/F3 cell line with a c-kit D816V mutation (FIG. 1) was added to each well of a 96-well plate at a concentration of 10,000 cells/100 μl. […] As the control compounds, imatinib and sunitinib which are c-kit inhibitors were used.

[2] = test system: HMC-1.2 cells subcutaneous tumor; assay: Tumor growth inhibition in mastocytosis mouse model with HMC-1.2 cell line; assay type: in vivo, NOD SCID female mice
Description: (§1) As mice, 6-8-week-old NOD SCID female mice (18 to 22 g) (GemPharmatech Co., Ltd.) were prepared. Mice were acclimatized for 7 days before use in the experiment, and mice with abnormal health were excluded from the experiment. Mice were bred in a cage (300×180×150 mm) at a 22±3° C. and a relative humidity of 40% to 70% with a 12-hr light/12-hr dark cycle. Mice were allowed access to sterilized dry granular food (Beijing Keaoxieli Feed Co., Ltd., Beijing, China) and water ad libitum for the entire experimental period except for the period specified in the protocol.
50 ml of HMC-1.2 cells suspension-cultured in a 75T flask were placed in a conical tube and centrifuged at 1,200 rpm for 2 minutes, centrifuged with DPBS (Dulbecco's Phosphate-Buffered Saline, Welgene) at 1,200 rpm for 2 minutes, washed, and then suspended in RPMI1640 (Welgene) without antibiotics and fetal bovine serum (FBS).
Thereafter, when the average tumor volume reached 150 to 200 mm^3, 4 mice were assigned to each group so that the average tumor volume at each group and treatment time was the same between the groups.
In addition, the width and length of the tumor were measured using a caliper at 3-day intervals, and the tumor volume was calculated using the following equation.
(V: tumor volume, W: tumor width, and L: tumor length)
In addition, the mice were sacrificed 3 weeks after the start of oral administration of each drug and the tumor weight was measured using a digital scale. For each data, one-way ANOVA was used to test the significance of each group.

[3] = test system: inflammatory response caused by mastocytosis (HMC-1.2 mouse model); assay: Spleen/body weight ratio in mastocytosis mouse model (inflammatory response); assay type: in vivo, NOD SCID female mice
Description: as §1
50 ml of HMC-1.2 cells suspension-cultured in a 75T flask were placed in a conical tube and centrifuged at 1,200 rpm for 2 minutes, centrifuged with DPBS (Dulbecco's Phosphate-Buffered Saline, Welgene) at 1,200 rpm for 2 minutes, washed, and then suspended in RPMI1640 (Welgene) without antibiotics and fetal bovine serum (FBS). Then, the cells were stained with trypan blue, counted with a hemocytometer, and then HMC-1.2 cells (1×10^6) in a mixture of 0.1 ml L-15 and Matrigel (BD, cat. No. 356234) (1:1) were subcutaneously injected into the right flanks of mice anesthetized by intraperitoneal administration of Avertin (250 mg/kg), thus inducing tumors.
Thereafter, when the average tumor volume reached 150 to 200 mm^3, 4 mice were assigned to each group so that the average tumor volume at each group and treatment time was the same between the groups. Then, each of imatinib at a dose of 90 mg/kg, sunitinib at doses of 20 and 40 mg/kg, and PHI-101 at doses of 7, 20, 40 and 80 mg/kg was administered orally to the mice once daily for 3 weeks. For oral administration, each compound was dissolved in 5% 1-methyl-2-pyrrolidone and then completely mixed in 15% Kolliphor, 30% PEG E400 HS15 and 50% 0.05M citric acid.
Specifically, 3 weeks after administering each drug to the mastocytosis mouse model of Example 3-1, the mice were sacrificed, the body weight and spleen weight were measured using a digital scale, and then the spleen/body weight ratio was calculated.

[4] = test system: neoplastic mast cells with the c-KIT mutation D816V; settings: literature, background; cited from earlier work
[5] = test system: neoplastic mast cells exhibiting wild type (wt) KIT or the rarely occurring F522C-mutated variant of KIT; settings: literature, background; cited from earlier work
[6] = 90 mg/kg oral once daily for 3 weeks
[7] = 20 mg/kg oral once daily for 3 weeks
[8] = 40 mg/kg oral once daily for 3 weeks

Which GI50 [1] does the source give for Cc1nc(Nc2ncc(C(=O)Nc3c(C)cccc3Cl)s2)cc(N2CCN(CCO)CC2)n1 [Dasatinib] here?
The GI50 was 312 nM.

For Cc1ccc(NC(=O)c2ccc(CN3CCN(C)CC3)cc2)cc1Nc1nccc(-c2cccnc2)n1 [Imatinib, reference compound], which GI50 [1] is on record?
The GI50 was 17100 nM.

What about the “Tumor growth inhibition (TGI) (%) Tumor weight” value [2, 6] of the same compound?
The value was 7.8%.

And the “Spleen/body weight ratio % of control” value [3, 6]?
Its value is 97.7%.

What about the “Spleen/body weight ratio Inhibition (%)” value [3, 6] of the same compound?
Its value is 2.3%.

And the “growth of neoplastic mast cells with c-KIT D816V” value [4]?
The value was “failed to inhibit the growth”.

What about the “growth of neoplastic mast cells with wt KIT or F522C KIT” value [5] of the same compound?
The value was “counteract the growth”.

With Cc1ccc(C(=O)Nc2ccc(CN3CCN(C)CC3)c(C(F)(F)F)c2)cc1C#Cc1cnc2cccnn12 [Ponatinib] as the compound, how does the GI50 [1] read?
Its GI50 is 194 nM.

Which GI50 [1] does the source give for CCN(CC)CCNC(=O)c1c(C)[nH]c(/C=C2\C(=O)Nc3ccc(F)cc32)c1C [Sunitinib, reference compound] here?
Its GI50 is 1300 nM.

What about the “Tumor growth inhibition (TGI) (%) Timor volume” value [2, 7] of the same compound?
The value was 37.3%.

What about the “Tumor growth inhibition (TGI) (%) Tumor weight” value [2, 7] of the same compound?
The value was 49.5%.

And the “Tumor growth inhibition (TGI) (%) Timor volume” value [2, 8]?
The value was 46.2%.

And the “Tumor growth inhibition (TGI) (%) Tumor weight” value [2, 8]?
The value was 47.9%.

And the “Spleen/body weight ratio % of control” value [3, 7]?
The value was 104.3%.

And the “Spleen/body weight ratio Inhibition (%)” value [3, 7]?
The value was −4.3%.

What about the “Spleen/body weight ratio % of control” value [3, 8] of the same compound?
The value was 102.7%.

What about the “Spleen/body weight ratio Inhibition (%)” value [3, 8] of the same compound?
The value was −2.7%.

— patent publication US20230263792A1, “USE OF 2,3,5-SUBSTITUTED THIOPHENE COMPOUND FOR PREVENTING, ALLEVIATION, OR TREATING MASTOCYTOSIS” (PHAROS IBIO CO., LTD, priority 2020, published 2023)
